PubChem BioAssay AID328 (DTP/NCI, 2004)
Where “and” joins values, the source holds several entries; their conditions need not be identical. Equal entries are not always repeated. Inconclusive results and toxic doses are left out. Starred links: 1 amine or outer side, 2 acyl side, 3 side chain; linkers in the order of their positions; H or OH if unused. Positions of bridges follow the written chain, without caps; N, C: chain ends. Non-standard residues stand in square brackets, D forms with d. Residues, ends and D or L forms follow the SMILES beside them. Chains are numbered I, II in the order given. Actinocin(9to1) = Cc1c2oc3c(C)ccc(C(=O)[*:1])c3nc-2c(C(=O)[*:2])c(N)c1=O; aThr = C[C@H](O)[C@H](N)C(=O)O; NMeV = CN[C@H](C(=O)O)C(C)C; Sar = CNCC(=O)O

Tested on: BDF1 mice, P388 leukemia ip, median survival T/C
Test: NCI In Vivo Anticancer Drug Screen. Data for tumor model P388 Leukemia (intraperitoneal) in B6D2F1 (BDF1) mice
Settings: endpoint: median survival time, higher = longer survival
Outline: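 Transplantable tumour in mice; compound vs vehicle dosing; survival scored; ratio of treated to control reported.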

In the case of `Cc1c2oc3c(C)ccc(C(=O)N[C@@H]4C(=O)N[C@H](C(C)C)C(=O)N5CCC[C@H]5C(=O)N(C)CC(=O)N(C)[C@@H](C(C)C)C(=O)O[C@H]4C)c3nc-2c(C(=O)N[C@@H]2C(=O)N[C@H](C(C)C)C(=O)N3CCC[C@H]3C(=O)N(C)CC(=O)N(C)[C@@H](C(C)C)C(=O)O[C@H]2C)c(N)c1=O` (I: [aThr][dV]P[Sar][NMeV] / II: [aThr][dV]P[Sar][NMeV]; ester I:1-I:C, II:1-II:C; linker I:N-II:N via Actinocin(9to1)), the T/C (dose: 0.03 mg/kg/injection, schedule: Q01DX009 (ip), vehicle: saline) is reported as 233 % of control, the T/C (dose: 0.03 mg/kg/injection, schedule: Q04DX003 (ip), vehicle: saline + alcohol) is reported as 161 % of control and the T/C (dose: 0.06 mg/kg/injection, schedule: Q04DX003 (ip), vehicle: saline + alcohol) is reported as 157 % of control. For the same compound, the T/C (dose: 0.07 mg/kg/injection, schedule: Q01DX009 (ip), vehicle: saline) was 250 % of control, the T/C (dose: 0.1 mg/kg/injection, schedule: Q01DX001 (ip), vehicle: saline) was 194 % of control and the T/C (dose: 0.13 mg/kg/injection, schedule: Q01DX009 (ip), vehicle: saline) was 100 % of control. For the same compound, the T/C (dose: 0.13 mg/kg/injection, schedule: Q04DX003 (ip), vehicle: saline + alcohol) was 184 % of control, the T/C (dose: 0.2 mg/kg/injection, schedule: Q01DX001 (ip), vehicle: saline) was 225 % of control and the T/C (dose: 0.25 mg/kg/injection, schedule: Q01DX001 (ip), vehicle: saline) was 178 % of control. The T/C (dose: 0.26 mg/kg/injection, schedule: Q01DX001 (ip), vehicle: saline) was 167 % of control, the T/C (dose: 0.3 mg/kg/injection, schedule: Q04DX003 (ip), vehicle: saline) was 100 % of control and the T/C (dose: 0.35 mg/kg/injection, schedule: Q01DX001 (ip), vehicle: other) was 166 % of control. For the same compound, the T/C (dose: 0.35 mg/kg/injection, schedule: Q01DX001 (ip), vehicle: saline) was 176 % of control and 185 % of control, the T/C (dose: 0.35 mg/kg/injection, schedule: Q04DX003 (ip), vehicle: saline) was 95 % of control and the T/C (dose: 0.4 mg/kg/injection, schedule: Q01DX001 (ip), vehicle: water) was 183 % of control. The T/C (dose: 0.4 mg/kg/injection, schedule: Q04DX003 (ip), vehicle: saline) was 90 % of control, the T/C (dose: 0.5 mg/kg/injection, schedule: Q01DX001 (ip), vehicle: other) was 192 % of control and the T/C (dose: 0.5 mg/kg/injection, schedule: Q04DX003 (ip), vehicle: saline + alcohol) was 79 % of control. The T/C (dose: 0.54 mg/kg/injection, schedule: Q01DX001 (ip), vehicle: saline) was 195 % of control, the T/C (dose: 0.6 mg/kg/injection, schedule: Q01DX001 (ip), vehicle: saline) was 223 % of control and the T/C (dose: 0.8 mg/kg/injection, schedule: Q01DX001 (ip), vehicle: other) was 236 % of control. The T/C (dose: 0.9 mg/kg/injection, schedule: Q01DX001 (ip), vehicle: saline) was 230 % of control, the T/C (dose: 1.2 mg/kg/injection, schedule: Q01DX001 (ip), vehicle: saline) was 225 % of control and the T/C (dose: 3.1 micrograms/kg/injection, schedule: Q01DX001 (ip), vehicle: saline) was 118 % of control. For the same compound, the T/C (dose: 3.1 micrograms/kg/injection, schedule: Q01DX010 (ip), vehicle: saline) was 170 % of control, the T/C (dose: 3.1 micrograms/kg/injection, schedule: Q04DX003 (ip), vehicle: saline) was 113 % of control and the T/C (dose: 6.3 micrograms/kg/injection, schedule: Q01DX001 (ip), vehicle: saline) was 122 % of control. For the same compound, the T/C (dose: 12.5 micrograms/kg/injection, schedule: Q01DX009 (ip), vehicle: saline) was 177 % of control, the T/C (dose: 12.5 micrograms/kg/injection, schedule: Q01DX009 (ip), vehicle: water) was 153 % of control and the T/C (dose: 12.5 micrograms/kg/injection, schedule: Q01DX010 (ip), vehicle: saline) was 225 % of control. The T/C (dose: 12.5 micrograms/kg/injection, schedule: Q04DX003 (ip), vehicle: saline) was 154 % of control, the T/C (dose: 21.6 micrograms/kg/injection, schedule: Q01DX009 (ip), vehicle: saline + alcohol) was 238 % of control and the T/C (dose: 25.0 micrograms/kg/injection, schedule: Q01DX009 (ip), vehicle: saline + alcohol) was 294 % of control and 162 % of control. The T/C (dose: 25.0 micrograms/kg/injection, schedule: Q01DX009 (ip), vehicle: saline) was 250 % of control and 274 % of control and 200 % of control, the T/C (dose: 25.0 micrograms/kg/injection, schedule: Q01DX009 (ip), vehicle: water) was 155 % of control and the T/C (dose: 25.0 micrograms/kg/injection, schedule: Q01DX010 (ip), vehicle: saline) was 245 % of control.
